Measured values as given in publication PMC8608967, “KDS2010, a Newly Developed Reversible MAO-B Inhibitor, as an Effective Therapeutic Candidate for Parkinson’s Disease” (Neurotherapeutics, 2021).

Experiments:
[1] = test system: MPTP-induced PD mouse model; experiment: MPTP mouse model: vertical grid test and coat hanger test; assay type: in vivo; details: MPTP mice; long-term (30-day) treatment, 10 mg/kg/day oral
Method: Group allocation and outcome assessment, but not the conduct of experiments and data analysis, were performed in a blinded manner. Throughout the study, confounders were not controlled. An acclimation period of 7 days was allowed for animals to stabilize in a new environment before model induction. […] Treatment drugs were dissolved in 100 μL of water and total dose (in mg) was calculated according to individual body weight (in kg).
The MPTP model was established using the acute regimen of four intraperitoneal (i.p.) injections of MPTP-HCl (M0896, Sigma Aldrich, 2 mg/mL in saline, 20 mg/kg for one injection) at 2-h intervals.
Motor deficits of the MPTP-induced PD mouse model were assessed using the vertical grid test as described in the previous study [23]. Briefly, after 2 days of habituation to the testing apparatus, individual mice were gently placed 3 cm from the top, facing upward, and allowed to turn around and climb down. We also performed a coat hanger test as described [24–26]. Briefly, a mouse was gently hung on the middle of a coat hanger and allowed to ascend to the top. Performance was graded as follows: 0, falling off the hanger within 20 s; 1, moving to the side-bar of the hanger; 2, reaching the side-bar of the hanger; 3, climbing the side-bar of the hanger; 4, moving to the top of the hanger; 5, climbing and reaching the safe zone. The test was performed twice and each trial lasted a maximum of 3 min.

6-OHDA model rats = experiment: 6-OHDA rat model: stepping test, rotarod test, TH; details: 6-OHDA rats; 10 mg/kg/day for 15 days starting 17 days post-6-OHDA
Method: (§1) Group allocation and outcome assessment, but not the conduct of experiments and data analysis, were performed in a blinded manner. Throughout the study, confounders were not controlled. An acclimation period of 7 days was allowed for animals to stabilize in a new environment before model induction. […] Treatment drugs were dissolved in 100 μL of water and total dose (in mg) was calculated according to individual body weight (in kg). […] An experiment was halted if body weight decreased by 20% or more after MPTP or 6-hydroxydopamine (6-OHDA) treatment.
Finally, the 6-OHDA model was prepared as previously described [21]. Under general anesthesia, all rats received unilateral injections of 8 μg 6-OHDA (Sigma Aldrich) in 4 μL saline/0.1% ascorbic acid into the right medial forebrain bundle (AP − 2.2 mm and L + 1.5 mm relative to the bregma, V − 8.0 mm from the dura) [19], with the tooth bar set at + 4.5 mm.
Motor deficits of 6-OHDA and A53T mutant α-synuclein model rats were assessed as previously described with slight modifications [27]. Briefly, both hind limbs and one forelimb were firmly fixed in the two hands of the experimenter, and the rat was lowered over a treadmill moving at rate of 18 cm/s such that the body remained stationary while the free forelimb was allowed to spontaneously touch the moving treadmill track for 10 s. All experimental sessions were video recorded to count the number of adjusting steps taken in the backward direction. The number of adjusting steps was averaged across four trials in each session.
In addition, impaired motor coordination of 6-OHDA model rats was examined using the rotarod test as previously described with slight modifications [28]. […] Before the first rotarod test, all rats were pre-trained until riding time reached 60 s at 10 rpm (B.S Technolab, Seoul, Korea). Each session consisted of two trials, and riding time was averaged to obtain pre-6-OHDA, 0d, 7d, and 15d results.

[2] = test system: MPTP-induced PD mouse model; experiment: MPTP mouse model: TH (DAB) and Nissl staining of SNpc and striatum; details: MPTP mice; long-term treatment, 29 days before MPTP and one more day after, 10 mg/kg/day oral; 10 mg/kg/day
Method: as §1
The MPTP model was established using the acute regimen of four intraperitoneal (i.p.) injections of MPTP-HCl (M0896, Sigma Aldrich, 2 mg/mL in saline, 20 mg/kg for one injection) at 2-h intervals. All MPTP use and safety precautions were strictly followed as described [18].
Coronal sections for striatum and SNpc were prepared at 30-μm thickness and immunostained using a DAB staining kit (TL-060-QHD, Thermo, MA, USA). […] After washing in PBS 3 times, sections were incubated in Primary Antibody Amplifier Quanto (TA-060-QPB, Thermo) for 5 min, washed again in PBS, incubated in HRP Polymer Quanto for 1 h, washed 4 times in PBS, and dipped for 30 s in a 1:10 mixture of DAB + chromogen and DAB + substrate buffer (K3468, Dako, Denmark). Finally, sections were washed, immersed in mounting medium, and dried.
Every 6th section including the SN was stained with anti-TH and the number of TH-positive neurons counted under low magnification (× 10) from the rostral tip of the SNpc to the caudal end of the substantia nigra pars reticulate (SNpr). […] The total number of neurons per section was estimated according to the optical fractionator formula. The total number of SNpc neurons in a hemisphere was then obtained by multiplying the number counted using Stereo Investigator 11 by the slice interval (six).
Other 30-μm-thick coronal sections from the SNpc were Nissl stained to assess viable cell number. Briefly, slices were stained with 0.1% cresyl violet solution for 3 min, rinsed with distilled water, and placed in a chamber filled with 70% ethanol for 1 min. […] A series of bright field images were obtained using an Olympus microscope. The slices were classified according to AP coordinates and Nissl-positive neurons counted using the counting tool of ImageJ (NIH, MD, USA).

[3] = H2O2 scavenging capacity test (Amplex red/HRP); details: 10 min incubation with H2O2 at RT
Method: To determine the H2O2 scavenging capacity of the test compound, H2O2 concentration was measured using the modified Amplex red/horseradish peroxidase (HRP) detection method as described previously. Briefly, a H2O2 solution was incubated with the test compound for 10 min at room temperature (RT), and then the reaction solution containing 20 mM Amplex red and 200 U/mL HRP was added. The absorbance was measured at 570 nm using a microplate reader. The H2O2 scavenging capacities were compared to a blank negative control and to the known H2O2 scavenger epigallocatechin gallate (EGCG) as a positive control.

Row | Molecule | vertical grid test: time to turn [1] | vertical grid test: total time [1] | stepping test: stepping behavior deficit of the contralateral forepaw (6-OHDA model rats) | loss of TH-positive cells in the SNpc [2] | H2O2 scavenging effect [3]
1 | C#CCN(C)[C@H](C)Cc1ccccc1 [selegiline, reference compound] | reduced | reduced | did not improve | non-significant increasing tendency | –
2 | epigallocatechin-3-gallate [EGCG, reference compound] | – | – | – | – | dose-dependent effect of H2O2 scavenging
